Results from ChEMBL document CHEMBL5357082, “Identification and Optimization of Small Molecule Pyrazolopyrimidine TLR7 Agonists for Applications in Immuno-oncology” (ACS Med Chem Lett, 2024).

Tests used:
Cytochrome P450 2C19 = Cytochrome P450 2C19 (Homo sapiens, UniProt P33261); test: Inhibition of CYP2C19 (unknown origin); assay type: ADME
Toll-like receptor 7 = target: T1, Toll-like receptor 7 (Homo sapiens, UniProt Q9NYK1); test: Agonist activity at human TLR7 in HEK-Blue hTLR7 cells harboring SEAP reporter transgene incubated for 18 hrs by quanti-blue reagent based assay; assay type: cell-based
T1 sequence (Q9NYK1 whole entry): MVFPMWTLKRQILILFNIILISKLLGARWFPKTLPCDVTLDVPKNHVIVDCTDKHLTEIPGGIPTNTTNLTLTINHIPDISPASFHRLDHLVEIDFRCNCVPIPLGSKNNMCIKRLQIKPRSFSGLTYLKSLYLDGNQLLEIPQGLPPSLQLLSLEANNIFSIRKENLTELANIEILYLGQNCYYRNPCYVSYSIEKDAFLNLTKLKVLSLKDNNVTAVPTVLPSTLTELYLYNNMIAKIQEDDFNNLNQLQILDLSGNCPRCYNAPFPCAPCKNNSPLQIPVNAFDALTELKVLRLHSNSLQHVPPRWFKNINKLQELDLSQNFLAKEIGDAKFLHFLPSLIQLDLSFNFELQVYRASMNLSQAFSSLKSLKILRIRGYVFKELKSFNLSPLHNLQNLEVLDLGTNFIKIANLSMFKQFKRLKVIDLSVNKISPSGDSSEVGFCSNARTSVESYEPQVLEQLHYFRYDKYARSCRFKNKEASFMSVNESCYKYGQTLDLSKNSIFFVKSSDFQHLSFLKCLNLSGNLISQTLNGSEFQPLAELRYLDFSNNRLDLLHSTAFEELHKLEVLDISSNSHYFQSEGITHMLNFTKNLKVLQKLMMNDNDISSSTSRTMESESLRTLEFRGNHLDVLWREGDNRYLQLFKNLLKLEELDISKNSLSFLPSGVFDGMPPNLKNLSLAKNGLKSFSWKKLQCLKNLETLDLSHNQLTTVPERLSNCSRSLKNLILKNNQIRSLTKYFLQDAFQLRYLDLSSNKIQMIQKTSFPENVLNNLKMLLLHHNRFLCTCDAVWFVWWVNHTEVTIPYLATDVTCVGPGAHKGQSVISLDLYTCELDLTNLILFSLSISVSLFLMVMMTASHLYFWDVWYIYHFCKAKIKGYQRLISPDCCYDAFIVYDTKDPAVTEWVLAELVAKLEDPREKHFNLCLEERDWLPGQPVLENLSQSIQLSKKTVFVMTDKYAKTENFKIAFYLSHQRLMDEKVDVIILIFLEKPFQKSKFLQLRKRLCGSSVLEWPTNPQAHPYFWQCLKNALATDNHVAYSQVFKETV

[1] = AUClast in nontumor bearing Balb/C mouse at 0.5 mg/kg; assay type: ADME, organism-based; set-up: dose 0.5 mg/kg; details: in vivo

Cytochrome P450 2C19, sequence (P33261 whole entry): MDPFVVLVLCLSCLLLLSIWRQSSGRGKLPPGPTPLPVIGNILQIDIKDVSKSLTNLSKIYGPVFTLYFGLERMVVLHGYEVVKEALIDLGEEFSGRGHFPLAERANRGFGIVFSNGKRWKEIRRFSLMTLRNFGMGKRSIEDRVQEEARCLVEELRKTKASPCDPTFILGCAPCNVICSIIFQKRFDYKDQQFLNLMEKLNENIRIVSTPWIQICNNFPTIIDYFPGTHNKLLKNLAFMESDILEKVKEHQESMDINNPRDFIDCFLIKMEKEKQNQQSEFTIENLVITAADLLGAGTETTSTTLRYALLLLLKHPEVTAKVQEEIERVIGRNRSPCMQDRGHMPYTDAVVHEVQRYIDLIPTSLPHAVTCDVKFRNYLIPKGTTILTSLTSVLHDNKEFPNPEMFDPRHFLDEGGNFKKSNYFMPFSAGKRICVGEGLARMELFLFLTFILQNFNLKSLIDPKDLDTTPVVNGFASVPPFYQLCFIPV

IC50 (Cytochrome P450 2C19): > 20000 nM | EC50 (Toll-like receptor 7): 13 nM | AUC(0-t) [1]: 0.655 µM·h
Structure (SMILES): CCC[C@@H](CCO)Nc1nc(N)nc2cnn(Cc3ncc(C4CCN(C5CCOCC5)CC4)cc3OC)c12
